Measured values as given in patent US6509010B2, “Cosmetic products for the reduction of sweat acidity” (Unilever Home & Personal Care USA, division of Conopco, Inc., priority 2001, dated 2003).
Like-named read-outs stand apart in the source and are kept apart here.

Tests used:
V-ATPase = experiment: Proton transfer inhibition: intracellular pH recovery after ammonium chloride pulse in isolated, microperfused human eccrine sweat reabsorptive ducts (BCECF-type probe); format: cell-based; conditions: for Inhibition of proton transfer out of the cells of the reabsorptive duct: significant at the 95% level (Student t-test); for Rate of pH recovery (%): control = 100, after 20 mM basolateral ammonium chloride pulse, 37° C.
Method: Human eccrine sweat ducts were isolated using the Kealey shearing technique (Lee C. M., Jones C. J., and Kealey T., J. Cell. Sci., 72, 1984, 259-274). Isolated portions of reabsorptive duct were mounted on a conventional microperfusion apparatus, between glass pipettes. One end of the duct was cannulated with a microperfusion pipette. The ducts were perfused at 37° C. with a control solution containing N-methyl-D-glucamine chloride (114 mM), potassium hydrogenphosphate (2.5 mM), magnesium chloride (1 mM), calcium chloride (1 mM), glucose (5 mM), and N-methyl-D-glucamine lactate (4 mM). Osmolality was adjusted to 300 mOsm/kg with mannitol and the pH adjusted to 7.4 with tris-HEPES. Intracellular pH was measured using the pH sensitive fluorescent probe BCEFC (bis-2-carboxyethyl-carbfluorescein) at 5 μM.
[…].
In the next part of the procedure, the indicated sweat ducts were subjected to acidification by a 20 mM basolateral pulse of ammonium chloride, with the additional presence of a V-ATPase inhibitor.

[1] = test system: Staphylococcus epidermidis; conditions: 80% or greater reduction in growth over 16 to 24 hours at 37° C., cited from earlier work

Sequence of V-ATPase (P27449 whole entry, the tested form may be a part): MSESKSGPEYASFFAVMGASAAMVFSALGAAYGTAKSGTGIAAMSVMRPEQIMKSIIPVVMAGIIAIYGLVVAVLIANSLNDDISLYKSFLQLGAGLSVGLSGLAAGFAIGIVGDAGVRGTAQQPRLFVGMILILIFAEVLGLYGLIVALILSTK

CO/C1=C\C(C)=C\[C@@H](C)[C@@H](O)[C@@H](C)C/C(C)=C/C=C/[C@H](OC)[C@@H]([C@@H](C)[C@@H](O)[C@H](C)[C@@]2(O)C[C@@H](O)[C@H](C)[C@@H](C(C)C)O2)OC1=O [Bafilomycin-A1, bafilomycin A1]
Inhibition of proton transfer out of the cells of the reabsorptive duct (V-ATPase; at 6.2 μg/ml): inhibit proton transfer | Rate of pH recovery (%) (V-ATPase; inhibitor at 6.2 μg/ml): 27%

C/C=C/[C@H]1O[C@@](O)([C@@H](C)[C@H](O)[C@H](C)[C@H]2OC(=O)/C(OC)=C/C(C)=C/[C@@H](C)[C@@H](O)[C@@H](CC)[C@@H](O)[C@H](C)C/C(C)=C/C=C/[C@@H]2OC)C[C@@H](O[C@H]2C[C@@H](O)[C@H](OC(N)=O)[C@@H](C)O2)[C@@H]1C [Concanamycin-A, concanamycin A]
Inhibition of proton transfer out of the cells of the reabsorptive duct (V-ATPase; at 0.1 μg/ml): inhibit proton transfer | Rate of pH recovery (%) (V-ATPase; inhibitor at 0.1 μg/ml): 5%

CCO [ethanol]
MIC ([1]; stated without source): greater than 1 mg.ml^−1

CC(C)=CCCC(C)=CCCC(C)=CCO [farnesol, 3,7,11-trimethyldodeca-2,6,10-trienol]
MIC ([1]; literature values): ca. 25 μg.ml^−1

Oc1cc(Cl)ccc1Oc1ccc(Cl)cc1Cl [triclosan, 2′,4,4′-trichloro,2-hydroxy-diphenyl ether]
MIC ([1]; literature values): 0.01 to 10 µg/mL

olygomycin
Inhibition of proton transfer out of the cells of the reabsorptive duct (V-ATPase; at 20 μg/ml): inhibit proton transfer | Rate of pH recovery (%) (V-ATPase; inhibitor at 20 μg/ml): 12%
